This note sets out measurements from patent publication US20220225639A1, “IMMUNE-STIMULATING COMPOSITIONS FOR AQUACULTURE SPECIES” (MIREXUS BIOTECHNOLOGIES INC., priority 2019, published 2022).

This test concerns rainbow trout gut cells (RT-gut). In words: Uptake and intracellular stability of fluorescently labelled poly IC (fluorescent microscopy). The class given is cell-based. The conditions noted are these: 1 ug/ml, 20 degree treatment, 4 hours. The protocol: Per Example 7, low molecular weight poly:IC was labelled with a fluorescent dye, then left as “free” poly:IC or coupled with Cat-PhG (0.38) at a 1:1 (w/w) ratio. Free poly:IC or PhG coupled poly:IC was added to RT-gut cells at a concentration of 1 ug/ml and incubated at 4° C. or 20° C. for 4 hours. Cells were imaged via fluorescent microscopy, and average intracellular fluorescence intensity was measured from 5 randomly selected cells.
Low molecular weight poly IC was labelled with the Ulysis AlexaFluor 546 labelling kit (Invitrogen), then left as “free” poly IC or couple with cationic PhG (0.38) at a 1:1 (w/w) ratio. Free poly IC or PhG coupled poly IC was added to RT-gut cells at a concentration of 1 ug/ml and incubated at 4° C. or 20° C. for 4 hours. Cells were imaged via fluorescent microscopy, and average intracellular fluorescence intensity was measured from 5 randomly selected cells.

“polyinosinic:polycytidylic acid [free poly IC]”: the intracellular fluorescence result is reported as “no fluorescence was detected”.
